According to article PMC8922279, “Identification of β-Lactams Active against Mycobacterium tuberculosis by a Consortium of Pharmaceutical Companies and Academic Institutions” (ACS Infectious Diseases, 2022):
Values after ≈ are worked out from the molar mass of the structure shown. Read-outs that look alike come from different tables or passages of the source.

Key:
plasma proteins [1] = conditions: 4 h, 2 μM, pH 7.4
in vitro [2] = conditions: human, plasma, Plasma stability % Remaining
P. aeruginosa = test: Microbial spectrum, P. aeruginosa; assay type: cell-based, Pseudomonas aeruginosa
E. coli = test: Microbial spectrum, E. coli; assay type: cell-based, Escherichia coli
[3] = 300 mg/kg sc, uninfected DHP-1 mice
WT Mtb H37Rv = test: Colony-forming unit (CFU) assay, replicating WT Mtb H37Rv; assay type: cell-based, Mycobacterium tuberculosis
in vitro [4] = conditions: human, plasma, pH 7.4, % bound to plasma
[5] = Metabolic stability, mouse; assay type: in vitro ADME
[6] = female, 129sv DHP-1 knockout, mouse, in vivo
in vitro [7] = conditions: human
physchem [8] = conditions: simulated gi fluid, pH 1.2
[9] = 2 h, 2 μM
plasma proteins [10] = conditions: 4 h, 2 μM, pH 7.4; remark: listed apart in the source
[11] = simulated gi fluid, 10 μM, pH 6.5
in vitro [12] = conditions: monkey, plasma
[13] = Metabolic stability, human; assay type: in vitro ADME
Method: Metabolic stability and induction of human hepatocytes were performed as previously described.[71]

in vitro [14] = conditions: cynomolgus monkey, plasma, pH 7.4
plasma proteins [15] = conditions: 4 h, 2 μM, pH 7.4; remark: listed apart in the source
Mtb H37Rv [16] = test: MIC90 against replicating (R) Mtb H37Rv, with or without clavulanate; assay type: cell-based, Mycobacterium tuberculosis; conditions: Table S4
in vitro [17] = conditions: SD, rat, plasma, Plasma stability % Remaining
Mtb H37Rv [18] = test: MIC90 against nonreplicating (NR, 4-stress) Mtb H37Rv, with or without clavulanate; assay type: cell-based, Mycobacterium tuberculosis; conditions: 4-stress nonreplicating, Table S4
in vitro [19] = conditions: beagle, dog, plasma, pH 7.4
in vitro [20] = conditions: beagle, dog, plasma
[21] = male, CD-1, mouse, 2 h, 2 μM
in vivo = conditions: female, 129sv DHP-1 knockout, mouse, sc, 50 mg/kg
physchem [22] = assay type: physicochemical; conditions: thermodynamic from solid
Method: Compounds were prepared at 1 mg/mL and left overnight at room temperature with stirring in phosphate buffer, 50 mM, at pH 7.4 or in 0.1 N HCl at pH 1. After separation of the soluble fraction by centrifugation, samples were filtered onto a polytetrafluoroethylene […] filter (Millipore) and then analyzed by HPLC.

[23] = SD, 2 h, 2 μM

In the case of `O=C(Cc1ccc(C2=NCCN2)cc1)N[C@@H]1C(=O)N2C(C(=O)O)=C(CSc3nncs3)CS[C@H]12` [TBBL-0000316], the “% bound to plasma, Human” value (plasma proteins [1]) is reported as 38%, the remaining at 2 h, 2 μM (in vitro [2]) is reported as 86.1% and the MIC90 (P. aeruginosa; Pseudomonas aeruginosa, P. aeruginosa) is reported as over 100 µM. The P.aeruginosa R + CLAV (MIC90) (P. aeruginosa; clavulanate 4 μg/mL, Table S4) was over 100 µM, the MIC90 (E. coli; Escherichia coli, E. coli) was 31.8 µM (≈ 16.4 µg/mL) and the E.coli R + CLAV (MIC90) (E. coli; clavulanate 4 μg/mL, Table S4) was 31.8 µM. The Tlast [3] was 2.0 to 4.0 h, the “reduction in CFU” value (WT Mtb H37Rv; daily dosing for 5 days with 4 μg/mL clavulanate, at ≥1 μM) was 3–4 log10 and the “reduction in CFU” value (WT Mtb H37Rv; single dose at 10 μM, one-week exposure, 4 μg/mL clavulanate) was 3.5 log10. The fraction unbound at 4 h, 2 μM (in vitro [4]) was 0.619, the metabolic stability [5] was 1.1 μL/min/mg protein and the “metabolic stability 1/2 life” value [5] was 1300 min. For the same molecule, the Tlast [6] was 6.0 h, the Papp A→B at 120 min, 3 μM (in vitro [7]; Caco-2, pH 7.4) was 0.31 ×10⁻⁶ cm/s and the Papp B→A at 120 min, 3 μM (in vitro [7]; Caco-2, pH 7.4) was 0.32 ×10⁻⁶ cm/s. For the same molecule, the Papp at 120 min, 3 µM (in vitro [7]; Caco-2, pH 7.4) was 0.3 ×10⁻⁶ cm/s, the efflux ratio at 120 min, 3 μM (in vitro [7]; Caco-2, pH 7.4) was 1.06 and the recovery at 120 min, 3 μM (in vitro [7]; Caco-2, pH 7.4, Caco-2 Mean Recovery % A to B) was 104%. It also gave a recovery at 120 min, 3 μM (in vitro [7]; Caco-2, pH 7.4, Caco-2 Mean Recovery % B to A) of 110%, a remaining at 1 h, 10 μM (physchem [8]) of 83.7% and a remaining at 24 h, 10 μM (physchem [8]) of 0.45%. The “Plasma stability % Remaining, Human” value [9] was 86%, the “% bound to plasma, CD-1 Mouse” value (plasma proteins [10]) was 18% and the “FaSSIF Stability, % remaining, 6h” value ([11]; 6 h) was 95%. For the same molecule, the “FaSSIF Stability, % remaining, 24h” value ([11]; 24 h) was 84%, the remaining at 2 h, 2 μM (in vitro [12]) was 114% and the metabolic stability [13] was 5.4 μL/min/mg protein. The “metabolic stability 1/2 life” value [13] was 256 min, the fraction unbound at 4 h, 2 μM (in vitro [14]) was 0.335 and the “% bound to plasma, SD Rat” value (plasma proteins [15]) was 62%. It also gave a Mtb H37Rv R + CLAV (MIC90) (Mtb H37Rv [16]; clavulanate 4 μg/mL) of 0.5 µM, a Mtb H37Rv R (MIC90) (Mtb H37Rv [16]; no clavulanate) of 44.7 µM and a remaining at 2 h, 2 μM (in vitro [17]) of 85.9%. For the same molecule, the Mtb H37Rv NR + CLAV (MIC90) (Mtb H37Rv [18]; clavulanate 4 μg/mL) was over 100 µM, the Mtb H37Rv NR (MIC90) (Mtb H37Rv [18]; no clavulanate) was over 100 µM and the fraction unbound at 4 h, 2 μM (in vitro [19]) was 0.973. The remaining at 2 h, 2 μM (in vitro [20]) was 77.3%, the “Plasma stability % Remaining, Mouse” value [21] was 89% and the AUC(0-t) (in vivo) was 23700 ng·h/mL. The Cmax (in vivo) was 17500 ng/mL, the Tmax (in vivo) was 30 min and the solubility (physchem [22]; pH 1, simulated gastric fluid) was 402 µg/mL (≈ 778 µM). For the same molecule, the solubility (physchem [22]; pH 7.4, aqueous buffer) was over 1000 µg/mL and the “Plasma stability % Remaining, Rat” value [23] was 86%.
